Experimental data as given in BindingDB's records for doi:10.1016/0014-2999(88)90492-x (Novo Industri, 1988).
Structures can show the parent of a compound that is named as a salt.

Tests used:
D(2) dopamine receptor = D(2) dopamine receptor (Mus musculus, UniProt P61168)
D(1A) dopamine receptor = D(1A) dopamine receptor (Mus musculus, UniProt Q61616)
D(1A) dopamine receptor, sequence (Q61616 whole entry): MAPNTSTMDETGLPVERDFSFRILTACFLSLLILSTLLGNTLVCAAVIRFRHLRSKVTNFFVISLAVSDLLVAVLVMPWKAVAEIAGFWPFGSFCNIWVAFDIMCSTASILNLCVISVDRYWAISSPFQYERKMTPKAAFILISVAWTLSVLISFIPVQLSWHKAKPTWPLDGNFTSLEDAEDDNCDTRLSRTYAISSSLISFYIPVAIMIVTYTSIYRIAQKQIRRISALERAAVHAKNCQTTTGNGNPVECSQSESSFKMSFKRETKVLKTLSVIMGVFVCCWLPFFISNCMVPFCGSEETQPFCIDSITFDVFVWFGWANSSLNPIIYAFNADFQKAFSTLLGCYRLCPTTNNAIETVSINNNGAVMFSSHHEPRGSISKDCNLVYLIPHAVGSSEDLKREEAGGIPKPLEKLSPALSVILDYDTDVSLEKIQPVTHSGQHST

D(2) dopamine receptor, sequence (P61168 whole entry): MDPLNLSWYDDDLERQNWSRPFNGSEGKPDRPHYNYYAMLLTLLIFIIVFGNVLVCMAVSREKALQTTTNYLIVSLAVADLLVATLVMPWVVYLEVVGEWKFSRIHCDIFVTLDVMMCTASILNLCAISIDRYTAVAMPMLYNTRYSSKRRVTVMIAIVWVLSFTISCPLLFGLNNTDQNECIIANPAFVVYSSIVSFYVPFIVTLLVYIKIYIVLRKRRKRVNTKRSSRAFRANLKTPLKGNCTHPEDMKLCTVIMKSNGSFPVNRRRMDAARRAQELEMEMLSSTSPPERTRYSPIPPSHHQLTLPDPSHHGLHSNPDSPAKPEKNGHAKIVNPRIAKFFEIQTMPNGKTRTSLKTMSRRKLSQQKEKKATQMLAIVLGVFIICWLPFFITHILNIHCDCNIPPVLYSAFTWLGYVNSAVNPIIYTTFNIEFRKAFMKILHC

Row | Compound | Ki (D(2) dopamine receptor) | Ki (D(1A) dopamine receptor)
1 | O=C(O)c1ccccc1C(=O)Nc1cccc2ccccc12 [NPA,(+)] | 0.0041 µM | 0.48 µM
2 | CN1CCN(C2=Nc3cc(F)ccc3Cc3ccccc32)CC1 | 0.245 µM | 0.085 µM
3 | OCCN1CCN(CCCN2c3ccccc3Sc3ccc(C(F)(F)F)cc32)CC1 [2-[4-[3-[2-(trifluoromethyl)phenothiazin-10-yl]propyl]piperazin-1-yl]ethanol;hydrochloride] | – | 0.0045 µM

More lines, now with the values ahead:

Row | Ki (D(2) dopamine receptor) | Ki (D(1A) dopamine receptor) | Compound
4 | 0.0048 µM | > 10 µM | CCN1CCC[C@H]1CNC(=O)c1c(O)c(Cl)cc(Cl)c1OC [3,5-Dichloro-N-(1-ethyl-pyrrolidin-2-ylmethyl)-2-hydroxy-6-methoxy-benzamide (raclopride)]
5 | 0.056 µM | > 10 µM | CCc1c(C)[nH]c2c1C(=O)C(CN1CCOCC1)CC2 (centres undefined) [Moban]
6 | 0.07 µM | – | CCN1CCCC1CNC(=O)c1cc(S(N)(=O)=O)ccc1OC (centres undefined) [N-[(1-ethylpyrrolidin-2-yl)methyl]-2-methoxy-5-sulfamoylbenzamide]
7 | 0.027 µM | 0.017 µM | CN1CCN(C2=Nc3cc(Cl)ccc3Cc3sccc32)CC1 [CAS_42239-60-1]
8 | 0.0076 µM | 0.016 µM | CN1CCN(C2=Nc3ccccc3Oc3ccc(Cl)cc32)CC1 [13-chloro-10-(4-methylpiperazin-1-yl)-2-oxa-9-azatricyclo[9.4.0.0^{3,8}]pentadeca-1(11),3,5,7,9,12,14-heptaene]
